Test results: US20240035071A1, “CATALYTIC DE-CROSSLINKING OF SAMPLES FOR IN SITU ANALYSIS” (10X Genomics, Inc., priority 2022, published 2024)

What was measured:
[1] = test system: FFPE human breast cancer tissues; experiment: RCP detection (RCP count/μm^2 nuclei area) in catalytically de-crosslinked FFPE human breast cancer samples; conditions: for detection of RCPs (detected object counts per nucleic area, RCP count/μm^2 nuclei area): 100 mM, 80° C., 30 minutes, compared to control de-crosslinked in a steamer for 30 minutes using citrate buffer (pH 6)
From the text: A formalin-fixed, paraffin-embedded (FFPE) tissue sample was cut into thin tissue sections using a pre-warmed microtome. The sections were placed on slides and dried at a temperature higher than room temperature, followed by overnight drying at room temperature in a desiccator. Images of the sections were taken for record, e.g., in order to monitor tissue morphology and/or detachment during sample processing. In some instances, images of the sections taken after de-crosslinking were compared to those before de-crosslinking.
The slides were baked uncovered in an oven, and then calibrated to room temperature. The sections were de-paraffinized and dehydrated using xylene and absolute ethanol. The sections were then re-hydrated using an ethanol series (e.g., 96% ethanol followed by 70% ethanol), and then re-hydrated in nuclease free water (e.g., DEPC water). The slides were gently dried to allow application of a cassette to seal around the tissue sections, without letting the tissue section to dry completely.
The sections were then de-crosslinked using a catalyst disclosed herein in a buffer solution. In some instances, the a de-crosslinking buffer can function as an antigen retriever buffer. Then the sections were washed three times with RNase-free phosphate-buffered saline (PBS) or PBST (phosphate-buffered saline solution with a low-concentration detergent solution, e.g., 0.05% to 0.1% Tween™ 20) prior to application of labelling agents (e.g., detectable nucleic acid probes for nucleic acids and/or labelled antibodies for proteins) to the tissue samples.
FFPE human breast cancer tissues were sectioned to […] thickness, transferred to Superfrost© Plus slides, and processed essentially as described in Example 1. Specifically, 2-amino-5-methylbenzoic acid (Compound 1) was used as the de-crosslinking agent and applied to de-paraffinized and re-hydrated samples in a buffer solution, such as a solution of citrate buffer at pH 6 or a solution of Tris-EDTA (TE) buffer at pH 9. […]

[2] = test system: FFPE human breast cancer tissues; experiment: anti-panCK antibody staining in de-crosslinked FFPE human breast cancer samples; conditions: various concentrations in citrate or TE buffer; compared to control de-crosslinked in a steamer
Experimental: FFPE human breast cancer tissues were sectioned to […] thickness, transferred to Superfrost© Plus slides, and processed essentially as described in Example 1. Specifically, 2-amino-5-methylbenzoic acid (Compound 1) was used as the de-crosslinking agent and applied to de-paraffinized and re-hydrated samples in a buffer solution, such as a solution of citrate buffer at pH 6 or a solution of Tris-EDTA (TE) buffer at pH 9. The samples were incubated under various de-crosslinking temperatures (e.g., 80° C. or 95° C.) for various time periods (e.g., 15 minutes or 30 minutes). Different concentrations of the de-crosslinking agent in the buffer solutions were tested, including 0 mM, 50 mM, 100 mM, 200 mM, and 400 mM of Compound 1.
The samples were washed (e.g., in PBST) and detectable probes in a hybridization buffer (e.g., containing SSC and formamide) were hybridized to RCA products (RCPs) in the sample. The detectable probes included probes that hybridize to sequences (e.g., barcode sequences or anchor sequences) in the RCPs and comprise overhangs for hybridization of fluorescently labelled detection oligonucleotides. The samples were imaged in fluorescent microscope with 40× objective and the signals associated with the RCPs were quantified using a software. […]

[3] = test system: FFPE human breast cancer, melanoma, lymph node, lung cancer, and normal lung tissues; experiment: RCP/RNA transcript detection in de-crosslinked FFPE samples from various tissues; conditions: across the tissue types; for visualization of transcripts GAPDH/RPLPO or MALAT-I/ACTB (RCPs): 0 mM or 200 mM, 30 minutes, compared to de-crosslinking in a steamer; for RNA/protein visualization: overlaid images of RNA detection and protein detection
Experimental: The de-crosslinked and washed tissue samples can be immediately used for analyte detection. In some instances, circularizable probes (e.g., padlock probes) targeting MALAT-1/ACTB (nuclear/cytoplasmic) or GAPDH/RPLPO (cytoplasmic) RNA transcripts were added in hybridization buffers (e.g., including SSC and formamide) and incubated with the samples to allow hybridization of the circularizable probes to their target nucleic acids. In addition to a target hybridization region, each circularizable probe also contained a common anchor region and a barcode region. Then, the probe hybridization mixture was removed and the samples were washed. For ligation of the circularizable probes hybridized to their target nucleic acids, a ligation reaction mix (e.g., containing a SplintR® ligase buffer, RNase inhibitor and SplintR® ligase) and a rolling circle amplification (RCA) primer were added to the samples and incubated for probe circularization and RCA primer hybridization to the probes. The samples were washed and an RCA reaction mixture (containing Phi29 reaction buffer, dNTPs, Phi29 polymerase) was added and incubated for RCA of the circularized probes.
(§1) The samples were washed (e.g., in PBST) and detectable probes in a hybridization buffer (e.g., containing SSC and formamide) were hybridized to RCA products (RCPs) in the sample. The detectable probes included probes that hybridize to sequences (e.g., barcode sequences or anchor sequences) in the RCPs and comprise overhangs for hybridization of fluorescently labelled detection oligonucleotides. The samples were imaged in fluorescent microscope with 40× objective and the signals associated with the RCPs were quantified using a software. In some instances, the samples were also stained with DAPI and/or labelled antibodies, e.g., fluorescently labelled anti-Vimentin antibody or anti-panCK antibody. In some instances, once the samples were imaged to detect signals associated with the detectable probes or labelled antibodies, the samples were stripped (e.g., using a denaturing agent) and contacted with additional detectable probes or labelled antibodies for the next imaging round.
FFPE human breast cancer, melanoma, lymph node, lung cancer, and normal lung tissues were processed essentially as described in Example 1. Specifically, 2-amino-5-methylbenzoic acid (Compound 1) or (4-aminopyridin-3-yl)phosphonic acid (Compound 8) was used as the de-crosslinking agent and applied to de-paraffinized and re-hydrated samples in a buffer solution, such as a solution of citrate buffer at pH 6 or a solution of TE buffer at pH 9. […] Analytes in the de-crosslinked tissue samples were detected essentially as described in Example 2.

[4] = test system: FFPE human breast cancer, melanoma, lymph node, lung cancer, and normal lung tissues; experiment: anti-Vimentin antibody staining in de-crosslinked FFPE samples from various tissues; conditions: across the tissue types, compared to de-crosslinking in a steamer and heating at 95° C. in TE buffer
From the text: as §1
FFPE human breast cancer, melanoma, lymph node, lung cancer, and normal lung tissues were processed essentially as described in Example 1. […] Analytes in the de-crosslinked tissue samples were detected essentially as described in Example 2.

[5] = test system: normal lung tissue samples; experiment: RCP detection in catalytically de-crosslinked FFPE normal lung tissue samples; set-up: species or system human; conditions: compared to control samples de-crosslinked in a steamer (data not shown)
Experimental: FFPE human breast cancer, melanoma, lymph node, lung cancer, and normal lung tissues were processed essentially as described in Example 1. Specifically, 2-amino-5-methylbenzoic acid (Compound 1) or (4-aminopyridin-3-yl)phosphonic acid (Compound 8) was used as the de-crosslinking agent and applied to de-paraffinized and re-hydrated samples in a buffer solution, such as a solution of citrate buffer at pH 6 or a solution of TE buffer at pH 9. The samples were incubated under various de-crosslinking temperatures (e.g., 80° C. or 95° C.) for 30 minutes, using 0 mM or 200 mM of Compound 1 or Compound 8. Analytes in the de-crosslinked tissue samples were detected essentially as described in Example 2.
The RCPs were detected using detectable probes targeting barcode sequences for MALAT-I/ACTB or GAPDH/RPLPO or targeting the common anchor region in the RCPs (representative images in FIG. 8, left panel).

FFPE mouse brain tissues = experiment: RCP signal detection in de-crosslinked FFPE mouse brain tissues; conditions: compared to Compound 1 in citrate buffer (pH 6.8)
Experimental: FFPE mouse brain tissues were processed essentially as described in Example 1, and gene expression analysis for RNA transcripts and protein analysis (e.g., anti-GFAP antibody staining) in the dentate gyrus (DG) region were performed essentially as described in Examples 2 and 3. Four de-crosslinking agent and buffer combinations were tested: Compound 1 in citrate buffer (pH 6.8), Compound 15 in citrate buffer (pH 6.8), Compound 18 (trans-4-hydroxy-L-proline) in citrate buffer (pH 6.8), and Compound 1 in PBS (pH 7.4).

[6] = test system: FFPE human breast cancer samples; experiment: RCP detection in FFPE human breast cancer samples de-crosslinked with additives; conditions: for detection of RCPs (detected object counts per nucleic area): 150 mM, 80° C., 30 minutes, compared to no additional additives or single additives
Experimental: (§2) FFPE human breast cancer samples sectioned to […] thickness were processed essentially as described in […]. Specifically, 2-amino-5-methylbenzoic acid (Compound 1) was used as the de-crosslinking agent and applied to de-paraffinized and re-hydrated samples in a buffer solution with various additives, such as 0.05% SDS, 0.2% SDS, 0.5% SDS, 0.05 M urea, 0.5 M urea, 0.2 μg/ml proteinase K, 0.5 μg/ml proteinase K, 1 μg/ml proteinase K, and combinations thereof. The samples were incubated at 80° C. for 30 minutes, using 150 mM of Compound 1. Analytes in the de-crosslinked tissue samples were detected essentially as described in Example 2 using circularizable probes (e.g., padlock probes) targeting ACTB, GAPDH, MALAT-1, RPLPO, Eef2, Ppib, POLR2A RNA transcripts. Detectable probes were hybridized to sequences (e.g., barcode sequences or anchor sequences) in the RCPs and comprised overhangs for hybridization of fluorescently labelled detection oligonucleotides. The samples were imaged in fluorescent microscope with 40× objective and the signals associated with the RCPs were quantified using a software.
FIG. 10A-10C show the detected object count per nucleic area (RCP count/μm^2 nuclei area) in cells of the human breast cancer samples treated with Compound 1 for de-crosslinking in the presence or absence of additives SDS, urea, and/or proteinase K as indicated. […] In addition, it was observed antibody staining (e.g., antibody positive signal intensity for Pan cytokeratin, Vimentin, and Ki67) was compatible with the catalytic de-crosslinking conditions with Compound 1 in the presence of urea and proteinase K. Tissue morphology was also observed to be preserved post workflow and detection as confirmed by H&E staining that was performed.

[7] = test system: FFPE human breast cancer samples; experiment: antibody staining (Pan cytokeratin, Vimentin, Ki67) in FFPE human breast cancer samples de-crosslinked with additives; conditions: in the presence of urea and proteinase K
Experimental: as §2
(§3) FIG. 10A-10C show the detected object count per nucleic area (RCP count/μm^2 nuclei area) in cells of the human breast cancer samples treated with Compound 1 for de-crosslinking in the presence or absence of additives SDS, urea, and/or proteinase K as indicated. […]

[8] = test system: FFPE human breast cancer samples; experiment: tissue morphology by H&E staining after de-crosslinking workflow with additives; conditions: post workflow and detection, confirmed by H&E staining
Experimental: as §2, §3

Cc1ccc(N)c(C(=O)O)c1 [Compound 1, 2-amino-5-methylbenzoic acid] was tested, and the “detection of RCPs (detected object counts per nucleic area, RCP count/μm^2 nuclei area)” value ([1]; TE buffer (pH 9)) was “significantly improve the detection of RCPs”, the “detection of RCPs (detected object counts per nucleic area, RCP count/μm^2 nuclei area)” value ([1]; citrate buffer (pH 6)) was “significantly improve the detection of RCPs” and the “sensitivity and RCP brightness” value ([1]; citrate buffer, between about 100 and about 200 mM) was “boost sensitivity and RCP brightness”. The “antibody staining (antibody positive signal intensity), anti-panCK” value [2] was “may be improved”, the “visualization of transcripts GAPDH/RPLPO or MALAT-I/ACTB (RCPs)” value [3] was “enhanced visualization” and the RNA/protein visualization [3] was “enhanced RNA/protein visualization”. For the same compound, the anti-Vimentin antibody staining [4] was “enhanced anti-Vimentin antibody staining”, the “RCP densities (detected object count per nucleic area, RCP count/μm^2 nuclei area)” value [5] was “Higher RCP densities” and the “signal density (detected object signal intensity above local background (mean))” value (from here on “signal density”) (FFPE mouse brain tissues; PBS (pH 7.4)) was “improved signal density”. The “detection of RCPs (detected object counts per nucleic area)” value ([6]; in the presence of SDS and proteinase K) was “appeared to improve the detection of RCPs”, the “detection of RCPs (detected object counts per nucleic area)” value ([6]; in the presence of urea and proteinase K) was “appeared to improve the detection of RCPs” and the “puncta brightness and/or numbers detected” value ([6]; in the presence of both 0.5 M urea and 1 μg/ml proteinase K) was “increases in puncta brightness and/or numbers detected”. The “puncta brightness and/or numbers detected” value ([6]; in the presence of both 0.5 M urea with 0.5 μg/ml Proteinase K) was “increases in puncta brightness and/or numbers detected”, the “antibody staining (antibody positive signal intensity for Pan cytokeratin, Vimentin, and Ki67)” value [7] was “compatible” and the tissue morphology [8] was “preserved”.
Nc1ccncc1P(=O)(O)O [Compound 8, (4-aminopyridin-3-yl)phosphonic acid] was tested, and the “visualization of transcripts GAPDH/RPLPO or MALAT-I/ACTB (RCPs)” value [3] was “enhanced visualization”, the RNA/protein visualization [3] was “enhanced RNA/protein visualization” and the anti-Vimentin antibody staining [4] was “enhanced anti-Vimentin antibody staining”. For the same compound, the “RCP densities (detected object count per nucleic area, RCP count/μm^2 nuclei area)” value [5] was “Higher RCP densities”.
For Nc1ccccc1P(=O)(O)O [Compound 15, (2-aminophenyl)phosphonic acid], the “signal density” value (FFPE mouse brain tissues; citrate buffer (pH 6.8)) was “improved signal density”.
O=C(O)[C@@H]1C[C@@H](O)CN1 [Compound 18, trans-4-hydroxy-L-proline] was tested, and the “signal density” value (FFPE mouse brain tissues; citrate buffer (pH 6.8)) was “improved signal density”.
